Source: patent publication US7157430B2, “(Substituted)acyl dipeptidyl inhibitors of the ICE/CED-3 family of cysteine proteases” (Idun Pharmaceuticals, Inc., priority 1998, dated 2007)
Like-named read-outs stand apart in the source and are kept apart here. Where a SMILES comes first, the peptide text is derived from it. The star is where a group is joined. Hydrocinnamoyl = O=C(CCc1ccccc1)*

Columns and labels:
Type in all cases: biochemical
mICE [1] = target: T1, mICE (Mus musculus, UniProt P29452); assay: Fluorescence enzyme assay, IC50 determination, ICE
T1 sequence (P29452 123-296 limits assumed): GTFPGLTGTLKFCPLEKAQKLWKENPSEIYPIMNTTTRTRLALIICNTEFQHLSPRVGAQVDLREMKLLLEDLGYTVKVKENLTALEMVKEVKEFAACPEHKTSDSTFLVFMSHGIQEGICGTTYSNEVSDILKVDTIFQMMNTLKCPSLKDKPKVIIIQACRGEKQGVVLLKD
T1 sequence (P29452 315-402 limits assumed): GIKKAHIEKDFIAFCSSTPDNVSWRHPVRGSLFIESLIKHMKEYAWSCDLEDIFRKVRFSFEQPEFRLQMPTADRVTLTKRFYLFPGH
Protocol: (§1) Fluorescence enzyme assays detecting the activity of the compounds of Formula 1 utilizing the recombinant ICE and CPP32 enzymes are performed essentially according to Thornberry et al. (Nature, 356:768:774 (1992)) and Nicholson et al. (Nature, 376:37–43 (1995)) respectively, (herein incorporated by reference) in 96 well microtiter plates. The substrate is Acetyl-Tyr-Val-Ala-Asp-amino-4-methylcoumarin (AMC) for the ICE assay and Acetyl-Asp-Glu-Val-Asp-amino-4-methylcoumarin for the CPP32, Mch2, Mch3 and Mch5 assays. Enzyme reactions are run in ICE buffer (25 mM HEPES, 1 mM EDTA, 0.1% CHAPS, 10% sucrose, pH 7.5) containing 2 mM DTT at room temperature in duplicate.
(§2) The enzyme and the compound of Formula I to be assayed are allowed to preincubate in the microtitre plate wells for 30 minutes at room temperature prior to the addition of substrate to initiate the reaction. Fluorescent AMC product formation is monitored for one hour at room temperature by measuring the fluorescence emission at 460 nm using an excitation wavelength of 360 nm. The fluorescence change in duplicate (control) wells are averaged and the mean values are plotted as a function of inhibitor concentration to determine the inhibitor concentration producing 50% inhibition (IC50). The results of this assay are set forth below in Table 1 and in Table 3 (for Table 3, see Examples 11 through 52).
(§3) The reference compound for this assay was Cbz-ValAlaAsp-H and the values are denoted in Table 1 as “Reference”.

MCH-2 [2] = target: T2, MCH-2 (Homo sapiens, UniProt P55212); assay: Fluorescence enzyme assay, IC50 determination, Mch2
T2 sequence (P55212 24-179 limits assumed): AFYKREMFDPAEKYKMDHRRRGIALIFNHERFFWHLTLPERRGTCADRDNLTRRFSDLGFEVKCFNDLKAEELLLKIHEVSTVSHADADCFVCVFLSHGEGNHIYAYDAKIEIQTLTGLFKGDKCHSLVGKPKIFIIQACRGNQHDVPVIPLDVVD
T2 sequence (P55212 194-293 limits assumed): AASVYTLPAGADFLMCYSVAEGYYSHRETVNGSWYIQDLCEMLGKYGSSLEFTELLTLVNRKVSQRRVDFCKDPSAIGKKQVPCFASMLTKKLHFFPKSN
Protocol: as §1, §2, §3

MCH-3 = target: T3, MCH-3 (Homo sapiens, UniProt P55210); assay: Fluorescence enzyme assay, IC50 determination, Mch3
T3 sequence (P55210 24-198 limits assumed): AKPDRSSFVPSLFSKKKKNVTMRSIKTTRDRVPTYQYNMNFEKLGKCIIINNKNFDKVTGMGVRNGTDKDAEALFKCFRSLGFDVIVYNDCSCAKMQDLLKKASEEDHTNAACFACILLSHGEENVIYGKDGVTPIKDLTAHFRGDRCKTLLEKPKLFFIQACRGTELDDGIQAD
T3 sequence (P55210 207-303 limits assumed): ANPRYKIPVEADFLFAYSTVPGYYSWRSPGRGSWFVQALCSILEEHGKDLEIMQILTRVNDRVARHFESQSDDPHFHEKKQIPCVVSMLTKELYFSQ
Protocol: as §1, §2, §3

MCH-5 [3] = target: T4, MCH-5 (Homo sapiens, UniProt Q14790); assay: Fluorescence enzyme assay, IC50 determination, Mch5
T4 sequence (Q14790 217-374 limits assumed, species assumed): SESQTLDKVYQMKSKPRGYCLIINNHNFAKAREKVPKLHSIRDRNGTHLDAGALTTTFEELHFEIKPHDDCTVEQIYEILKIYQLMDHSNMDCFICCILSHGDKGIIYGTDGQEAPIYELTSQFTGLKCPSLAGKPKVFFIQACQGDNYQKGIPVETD
T4 sequence (Q14790 385-479 limits assumed, species assumed): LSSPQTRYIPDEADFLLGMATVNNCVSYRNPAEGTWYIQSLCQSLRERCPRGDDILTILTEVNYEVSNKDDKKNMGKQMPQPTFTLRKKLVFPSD
Protocol: as §1, §2, §3

CPP32 [4] = target: T5, CPP32 (Homo sapiens, UniProt P42574); assay: Fluorescence enzyme assay, IC50 determination, CPP32
T5 sequence (P42574 29-175 limits assumed): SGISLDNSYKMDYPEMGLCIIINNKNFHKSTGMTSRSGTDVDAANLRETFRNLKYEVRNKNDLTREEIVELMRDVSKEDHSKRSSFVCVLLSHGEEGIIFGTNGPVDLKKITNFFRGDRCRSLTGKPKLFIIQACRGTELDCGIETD
T5 sequence (P42574 176-277 limits assumed): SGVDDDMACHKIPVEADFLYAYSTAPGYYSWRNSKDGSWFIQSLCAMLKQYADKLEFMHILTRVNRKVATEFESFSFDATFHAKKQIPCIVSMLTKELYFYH
Protocol: as §1, §2, §3

mICE [5] = target: T1, mICE; assay: Dissociation constant Ki and irreversible rate constant k3 for irreversible inhibitors, ICE; conditions: continuous assay 60 min, reaction initiated by adding enzyme
MCH-2 [6] = target: T2, MCH-2; assay: Dissociation constant Ki and irreversible rate constant k3 for irreversible inhibitors, Mch2; conditions: continuous assay 60 min, reaction initiated by adding enzyme
CPP32 [7] = target: T5, CPP32; assay: Dissociation constant Ki and irreversible rate constant k3 for irreversible inhibitors, CPP32; conditions: continuous assay 60 min, reaction initiated by adding enzyme
MCH-5 [8] = target: T4, MCH-5; assay: Dissociation constant Ki and irreversible rate constant k3 for irreversible inhibitors, Mch5; conditions: continuous assay 60 min, reaction initiated by adding enzyme
[9] = Table 3, method of Preparation 3A, read-out: mICE I50
[10] = Table 3, method of Preparation 3A, read-out: MCH2 I50
[11] = Table 3, method of Preparation 3A, read-out: MCH3 I50
[12] = Table 3, method of Preparation 3A, read-out: MCH5 I50
[13] = Table 3, method of Preparation 3A, read-out: CPP32 I50
[14] = Ac-DEVD-AMC substrate, 30 min preincubation, room temperature, read-out: MCH-2 IC50
[15] = Ac-DEVD-AMC substrate, 30 min preincubation, room temperature, read-out: MCH-3 IC50
[16] = Ac-DEVD-AMC substrate, 30 min preincubation, room temperature, read-out: MCH-5 IC50
[17] = recombinant enzyme, Ac-DEVD-AMC substrate, 30 min preincubation, room temperature, read-out: CPP32 IC50

Compound	IC50 (mICE [1]; [9]) [nM]	IC50 (MCH-2 [2]; [10]) [nM]	IC50 (MCH-3; [11]) [nM]	IC50 (MCH-5 [3]; [12]) [nM]	IC50 (CPP32 [4]; [13]) [nM]	also measured
CC(C)C[C@H](NC(=O)CCCc1ccc2ccccc2c1)C(=O)N[C@H](C=O)CC(=O)O [Example 18]	1800	14500	18200	> 50000	2760	
CC(C)C[C@H](NC(=O)COc1cccc2ccccc12)C(=O)N[C@H](C=O)CC(=O)O [Example 12]	597	846	1950	821	139	
CC(C)[C@H](NC(=O)COc1ccc2ccccc2c1C(=O)O)C(=O)N[C@H](C=O)CC(=O)O [Example 5, (3S)-3-[N-((1′-Carboxy-2′-Naphthyloxy)Acetyl)Valinyl]Amino-4-Oxobutanoic Acid]						IC50 (mICE [1]; recombinant enzyme, Ac-YVAD-AMC substrate, 30 min preincubation, room temperature, read-out: mICE IC50): 2960 nM; IC50 (MCH-2 [2]; [14]): 3610 nM; IC50 (MCH-3; [15]): 10900 nM; IC50 (MCH-5 [3]; [16]): 733 nM; IC50 (CPP32 [4]; [17]): 401 nM
CC(C)C[C@H](NC(=O)C(C)Oc1cccc2ccccc12)C(=O)N[C@H](C=O)CC(=O)O (some centres unmarked) [Example 14]		1280	1320	2430	376	
CC(C)C[C@H](NC(=O)C(C)Nc1cccc2ccccc12)C(=O)N[C@H](C=O)CC(=O)O (mixture of isomers) [Example 9, (3S,2′RS)-3-[N-(2′-(1-Naphthylamino)Propionyl)Leucinyl]Amino-4-Oxobutanoic Acid]						IC50 (MCH-2 [2]; [14]): 310 nM; IC50 (MCH-3; [15]): 7240 nM; IC50 (MCH-5 [3]; [16]): 17 nM; IC50 (CPP32 [4]; [17]): 512 nM
CC(C)C[C@H](NC(=O)CCOc1cccc2ccccc12)C(=O)N[C@H](C=O)CC(=O)O [Example 22]		305	1370	9810	59	
CC(C)C[C@H](NC(=O)[C@@H](CCC(=O)O)Oc1cccc2ccccc12)C(=O)N[C@H](C=O)CC(=O)O [Example 4, (3S,2′R)-3-[N-((2′-(1-Naphthyloxy)-4′-Carboxy)Butyryl)Leucinyl]Amino-4-Oxobutanoic Acid]						IC50 (MCH-2 [2]; [14]): 3.5 nM; IC50 (MCH-3; [15]): 130 nM; IC50 (MCH-5 [3]; [16]): 31 nM; IC50 (CPP32 [4]; [17]): 3.8 nM
CC(C)C[C@H](NC(=O)C(C)Oc1cccc2cc(Br)ccc12)C(=O)N[C@H](C=O)CC(=O)O (some centres unmarked) [Example 15]		13800	32400	29100	4810	
CC(C)C[C@H](NC(=O)[C@H](CCC(=O)O)Oc1cccc2ccccc12)C(=O)N[C@H](C=O)CC(=O)O [Example 3, (3S,2′S)-3-[N-((2′-(1-Naphthyloxy)-4′-Carboxy)Butyryl)Leucinyl]Amino-4-Oxobutanoic Acid]						IC50 (MCH-2 [2]; [14]): 15 nM; IC50 (MCH-3; [15]): 587 nM; IC50 (MCH-5 [3]; [16]): 12 nM; IC50 (CPP32 [4]; [17]): 21 nM
CC(C)[C@H](NC(=O)COc1cccc2ccccc12)C(=O)N[C@@H](CC(=O)O)C(=O)COc1cc(F)ccc1F [Example 70]						Ki (mICE [5]): 399 nM; mICE k3/Ki (mICE [5]): 12,100 M^−1s^−1; Ki (MCH-2 [6]): 357 nM; MCH-2 k3/Ki (MCH-2 [6]): 1,330 M^−1s^−1; CPP32 k3/Ki (CPP32 [7]): 49,000 M^−1s^−1; Ki (CPP32 [7]): 104 nM; Ki (MCH-5 [8]): 760 nM; MCH-5 k3/Ki (MCH-5 [8]): 480 M⁻¹ s⁻¹
CC(C)C[C@H](NC(=O)COc1c(C(=O)O)ccc2ccccc12)C(=O)N[C@@H](CC(=O)O)C(=O)COC(=O)c1c(Cl)cccc1Cl [Example 165, (3S)-3-[N-((2′-Carboxy-1′-Naphthyloxy)Acetyl)Leucinyl]-Amino-5-(2′,6′-Dichlorobenzoyloxy)-4-Oxopentanoic Acid]						Ki (mICE [5]): 396 nM; mICE k3/Ki (mICE [5]): 25,500 M^−1s^−1; Ki (MCH-2 [6]): 8 nM; MCH-2 k3/Ki (MCH-2 [6]): 116,000 M^−1s^−1; CPP32 k3/Ki (CPP32 [7]): 335,000 M^−1s^−1; Ki (CPP32 [7]): 20 nM; Ki (MCH-5 [8]): 89 nM; MCH-5 k3/Ki (MCH-5 [8]): 13,100 M^−1s^−1
CC(C)[C@H](NC(=O)CCOc1ccccc1)C(=O)N[C@@H](CC(=O)O)C(=O)COc1c(F)c(F)cc(F)c1F [Example 160, (3S)-3-[N-(3′-(Phenoxy)Propionyl)Valinyl]Amino-5-(2,3,5,6-Tetrafluorophenoxy)-4-Oxopentanoic Acid]						Ki (mICE [5]): 1180 nM; mICE k3/Ki (mICE [5]): 11,400 M^−1s^−1; Ki (MCH-2 [6]): 93 nM; MCH-2 k3/Ki (MCH-2 [6]): 36,600 M^−1s^−1; CPP32 k3/Ki (CPP32 [7]): 33,000 M^−1s^−1; Ki (CPP32 [7]): 132 nM; Ki (MCH-5 [8]): 351 nM; MCH-5 k3/Ki (MCH-5 [8]): 3,680 M^−1s^−1
CC(C)[C@H](NC(=O)COc1cccc2ccccc12)C(=O)N[C@@H](CC(=O)O)C(=O)COP(C)(=O)c1ccccc1 (some centres unmarked) [Example 104]						Ki (mICE [5]): 133 nM; mICE k3/Ki (mICE [5]): 50,600 M^−1s^−1; Ki (MCH-2 [6]): 37 nM; MCH-2 k3/Ki (MCH-2 [6]): 50,200 M^−1s^−1; CPP32 k3/Ki (CPP32 [7]): 151,000 M^−1s^−1; Ki (CPP32 [7]): 54 nM; Ki (MCH-5 [8]): 59 nM; MCH-5 k3/Ki (MCH-5 [8]): 15,500 M^−1s^−1

More lines, main results first:

IC50 (mICE [1]; [9]) [nM]	IC50 (MCH-2 [2]; [10]) [nM]	IC50 (MCH-3; [11]) [nM]	IC50 (MCH-5 [3]; [12]) [nM]	IC50 (CPP32 [4]; [13]) [nM]	Compound	also measured
1320	5900	9650	15200	910	CC(C)C[C@H](NC(=O)CCOc1ccc2ccccc2c1)C(=O)N[C@H](C=O)CC(=O)O [Example 23]	
9420	> 50000	6040	> 10000	419	CC(C)C[C@H](NC(=O)CCOc1ccccc1)C(=O)N[C@H](C=O)CC(=O)O [Example 37]	
521	10100	3360	6050	490	CC(C)C[C@H](NC(=O)COc1ccccc1Cc1ccccc1)C(=O)N[C@H](C=O)CC(=O)O [Example 42]	
831	22600	4080	1450	263	COc1ccc(OCC(=O)N[C@@H](CC(C)C)C(=O)N[C@H](C=O)CC(=O)O)c2ccccc12 [Example 27]	
> 10000	> 50000	> 10000	> 10000	3400	CC(C)C[C@H](NC(=O)COc1ccccc1)C(=O)N[C@H](C=O)CC(=O)O [Example 38]	
> 10000		> 10000	> 10000	9740	CC(C)C[C@H](NC(=O)CCc1ccccc1)C(=O)N[C@H](C=O)CC(=O)O [Example 35] (Hydrocinnamoyl-Leu-Asp-aldehyde)	
44200	> 50000	34700	> 50000	1570	CC(C)C[C@H](NC(=O)COc1nccc2ccccc12)C(=O)N[C@H](C=O)CC(=O)O [Example 30]	
1900	20500	12000	7530	763	CC(C)C[C@H](NC(=O)COc1ccc(-c2ccccc2)cc1)C(=O)N[C@H](C=O)CC(=O)O [Example 41]	
